Experimental data as given in US10350257B2, “Pharmaceutical composition containing complex extract of Crataegi fructus and Citri pericarpium as an active ingredient for treating or preventing obesity or lipid-related metabolic diseases” (NEUMED, priority 2012, dated 2019).
Marks after values point to notes of the source that are not given here.

Legend:
[1] = 1,500 mg HCA daily, 12-week clinical trial; cited from earlier work
[2] = test system: diet-induced obesity (DIO) white rat models; test: Body weight gain in high-fat diet obese animal models (8 weeks); type: in vivo, Sprague-Dawley male white rats; settings: oral twice a day for 8 weeks, extracts 100 mg/kg, HCA 390 mg/kg
Protocol: (§1) Animal experiments were performed on Sprague-Dawley ([…] BIO Korea) male white rats weighing 80 to 100 g. 3. Selection of Experimental Groups • Normal group (AIN-93G, Normal diet+fed with secondary distilled water); • Control group (60% Kcal high-fat diet+fed with secondary distilled water); • Positive control group (60% Kcal high-fat diet+administered with 390 mg/kg of […] Fructus extract-administered group (high-fat diet+administered with 100 mg/kg of […] Fructus extract of Comparative Example 1); • Citri Pericarpium extract-administered group (high-fat diet+administered with 100 mg/kg of the Citri Pericarpium extract of Comparative Example 2); and • Complex extract-administered group (high-fat diet+administered with 100 mg/kg of the complex extract of Example 1 or 2). The temperature was 22±2° C., the relative humidity was 50±10%, and the dark-light cycle (light on at 07:00 light off at 19:00) was controlled with fluorescent lighting. […] Moreover, all the experimental groups were sacrificed after 8 weeks to collect blood samples, serums were separated from the blood samples, and the blood triglyceride (mg/dL) and the total cholesterol (mg/dL) were analyzed using a biochemical analyzer ([…], USA).

[3] = test system: diet-induced obesity (DIO) white rat models; test: Blood triglyceride and total cholesterol in serum of high-fat diet obese animal models after 8 weeks; type: in vivo, Sprague-Dawley male white rats; settings: serum after 8 weeks; high-fat diet rats; extracts 100 mg/kg, HCA 390 mg/kg oral twice a day
Protocol: as §1

[4] = about 3 g daily, after 3 months, clinical trials; cited from earlier work

| Compound | Weight loss effect compared to the placebo group [1] | Body weight gain ([2]; 60% Kcal high-fat diet rats, mean±SD) | Reduction in rate of body weight gain ([2]; vs high-fat diet control group) | Total cholesterol [3] | Total triglyceride [3] | Average body weight lost [4] | Body fat reduced [4] |
| --- | --- | --- | --- | --- | --- | --- | --- |
| O=C(O)CC(O)(C(=O)O)C(O)C(=O)O (stereo not shown) [HCA, hydroxycitrate] | no weight loss effect | 333.2 ± 12.2 g | 7.3* % | 59.8 ± 11.2 mg/dL | 134.2 ± 21.3 mg/dL | – | – |
| conjugated linoleic acid | – | – | – | – | – | 2.5 kg | 15 to 20% |
